The record followed here is patent publication US20260092070A1, “INHIBITORS OF CANINE JANUS KINASE AND USES THEREOF” (ANIMOL DISCOVERY, INC., priority 2023, published 2026).

The target of one assay is Human JAK-2 (Homo sapiens, UniProt O60674). Description: JAK enzymatic assay (Eurofins KinaseProfiler/IC50Profiler, radiometric), JAK-2. The format is biochemical. The note with it: human JAK-2 enzyme, 9 concentrations; read-out: JAK2 affinity (IC50) category.
The target of another assay is JAK-1 (Homo sapiens, UniProt P23458). The assay can be described thus: JAK enzymatic assay (Eurofins KinaseProfiler/IC50Profiler, radiometric), JAK-1. As to conditions: for JAK1/JAK2 selectivity: selectivity IC50 ratio for JAK1 versus JAK2, human enzymes.
JAK-1, sequence (P23458 whole entry): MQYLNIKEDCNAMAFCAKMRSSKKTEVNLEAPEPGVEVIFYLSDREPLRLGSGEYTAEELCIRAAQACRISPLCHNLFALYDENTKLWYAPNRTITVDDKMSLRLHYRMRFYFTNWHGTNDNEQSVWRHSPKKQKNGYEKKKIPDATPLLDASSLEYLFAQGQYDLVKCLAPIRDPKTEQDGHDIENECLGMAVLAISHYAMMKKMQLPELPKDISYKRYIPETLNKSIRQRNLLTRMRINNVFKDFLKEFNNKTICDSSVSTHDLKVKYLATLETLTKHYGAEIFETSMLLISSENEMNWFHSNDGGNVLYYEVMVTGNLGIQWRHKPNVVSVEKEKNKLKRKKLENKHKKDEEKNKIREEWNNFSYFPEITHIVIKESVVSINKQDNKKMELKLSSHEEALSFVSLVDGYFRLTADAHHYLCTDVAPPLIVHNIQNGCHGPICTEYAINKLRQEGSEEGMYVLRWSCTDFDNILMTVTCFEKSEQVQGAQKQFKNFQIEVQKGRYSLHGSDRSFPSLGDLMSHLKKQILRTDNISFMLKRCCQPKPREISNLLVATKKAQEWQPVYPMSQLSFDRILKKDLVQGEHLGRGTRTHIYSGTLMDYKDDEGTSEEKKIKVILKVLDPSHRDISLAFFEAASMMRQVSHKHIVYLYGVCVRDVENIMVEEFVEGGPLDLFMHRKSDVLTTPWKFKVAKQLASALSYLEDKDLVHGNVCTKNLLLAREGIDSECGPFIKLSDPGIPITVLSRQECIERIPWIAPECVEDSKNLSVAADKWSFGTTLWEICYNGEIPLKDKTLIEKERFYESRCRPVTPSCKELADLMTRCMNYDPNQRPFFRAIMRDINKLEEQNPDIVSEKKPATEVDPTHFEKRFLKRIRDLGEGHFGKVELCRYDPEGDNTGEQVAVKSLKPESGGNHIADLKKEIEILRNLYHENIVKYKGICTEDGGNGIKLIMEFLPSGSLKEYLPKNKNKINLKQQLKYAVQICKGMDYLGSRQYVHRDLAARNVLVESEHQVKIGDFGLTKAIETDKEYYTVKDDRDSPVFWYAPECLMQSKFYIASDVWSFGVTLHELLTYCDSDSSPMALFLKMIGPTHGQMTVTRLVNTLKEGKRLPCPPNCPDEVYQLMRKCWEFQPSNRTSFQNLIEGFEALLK

Human JAK-2, sequence (O60674 whole entry): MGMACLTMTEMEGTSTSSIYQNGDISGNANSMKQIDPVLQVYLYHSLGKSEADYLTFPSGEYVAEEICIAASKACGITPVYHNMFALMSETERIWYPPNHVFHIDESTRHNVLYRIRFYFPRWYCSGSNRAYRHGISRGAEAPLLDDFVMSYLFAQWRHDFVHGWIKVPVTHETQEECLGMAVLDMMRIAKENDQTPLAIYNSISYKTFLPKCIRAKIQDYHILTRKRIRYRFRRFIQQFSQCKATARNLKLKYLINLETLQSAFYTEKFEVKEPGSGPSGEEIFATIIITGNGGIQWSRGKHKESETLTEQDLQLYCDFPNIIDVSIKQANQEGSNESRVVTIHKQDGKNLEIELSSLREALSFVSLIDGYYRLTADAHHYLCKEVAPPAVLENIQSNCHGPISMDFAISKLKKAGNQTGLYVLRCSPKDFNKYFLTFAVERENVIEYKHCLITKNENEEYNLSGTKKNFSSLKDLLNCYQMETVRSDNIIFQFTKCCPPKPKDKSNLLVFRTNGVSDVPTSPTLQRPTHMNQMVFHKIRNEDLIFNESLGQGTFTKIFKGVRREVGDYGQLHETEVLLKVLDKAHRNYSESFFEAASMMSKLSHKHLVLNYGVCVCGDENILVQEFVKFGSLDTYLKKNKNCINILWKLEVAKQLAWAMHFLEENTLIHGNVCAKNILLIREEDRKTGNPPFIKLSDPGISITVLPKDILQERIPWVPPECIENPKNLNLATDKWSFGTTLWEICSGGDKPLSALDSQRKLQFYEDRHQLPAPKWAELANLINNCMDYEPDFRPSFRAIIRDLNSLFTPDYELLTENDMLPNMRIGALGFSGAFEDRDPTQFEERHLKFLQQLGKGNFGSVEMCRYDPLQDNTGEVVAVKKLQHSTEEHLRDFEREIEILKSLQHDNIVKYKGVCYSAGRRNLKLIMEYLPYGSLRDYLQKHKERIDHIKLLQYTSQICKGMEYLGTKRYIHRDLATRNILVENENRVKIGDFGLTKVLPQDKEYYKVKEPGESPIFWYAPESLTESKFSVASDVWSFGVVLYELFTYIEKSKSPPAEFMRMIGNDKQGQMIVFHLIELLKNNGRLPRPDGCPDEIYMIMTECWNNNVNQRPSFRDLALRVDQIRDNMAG
Description for Human JAK-2: (§1) All enzyme assays were conducted according to Eurofins Discovery's KinaseProfiler™ and IC50Profiler™ services.
(SEQ ID NO: 2) peptide substrate, 10 mM magnesium acetate and [gamma-33P]-ATP (specific activity and concentration as required). The reaction was initiated by the addition of the Mg/ATP mix. After incubation for 40 minutes at room temperature, the reaction was stopped by the addition of phosphoric acid to a concentration of 0.5%. An aliquot of the reaction was then spotted onto a filter and washed four times for 4 minutes in 0.425% phosphoric acid and once with methanol prior to drying and scintillation counting.
Data was then imported into an internal application where each data point was expressed as % inhibition based on uninhibited and no enzyme controls.
Description for JAK-1: as §1
(SEQ ID NO.: 1) peptide substrate, 10 mM magnesium acetate and [gamma-33P]-ATP (specific activity and concentration as required). The reaction was initiated by the addition of the Mg/ATP mix. After incubation for 40 minutes at room temperature, the reaction was stopped by the addition of phosphoric acid to a concentration of 0.5%. An aliquot of the reaction was then spotted onto a filter and washed four times for 4 minutes in 0.425% phosphoric acid and once with methanol prior to drying and scintillation counting. A known inhibitor, Staurosporine, was used as a positive control for the assay.
Data was then imported into an internal application where each data point was expressed as % inhibition based on uninhibited and no enzyme controls. […] Inhibition values for the JAK enzymes (IC50 values) for each compound were stratified into four groups.

With `CCN(CC)S(=O)(=O)c1ccc(NC(=O)CN2CCN(c3ncnc4[nH]ccc34)CC2)cc1` [Compound 15, 2-(4-(7H-pyrrolo[2,3-d]pyrimidin-4-yl)piperazin-1-yl)-N-(4-(N,N-diethylsulfamoyl)phenyl)acetamide], the IC50 (in general, the concentration that gives 50% inhibition) on Human JAK-2 was > 1000 nM. In addition, on JAK-1, the IC50 fell in the range of 250 to 500 nM and the JAK1/JAK2 selectivity was 9.
For `O=C(Nc1ccccc1)C1CCN(C(=O)CN2CCN(c3ncnc4[nH]ccc34)CC2)CC1` [Compound 16, 1-(2-(4-(7H-pyrrolo[2,3-d]pyrimidin-4-yl)piperazin-1-yl)acetyl)-N-phenylpiperidine-4-carboxamide], the IC50 at Human JAK-2 is > 1000 nM. Moreover, at JAK-1, the IC50 lay in the range of 250 to 500 nM and the JAK1/JAK2 selectivity amounted to 19.
For the compound `CC1CCCN(C(=O)C2CCN(C(=O)CN3CCN(c4nc[nH]c5nccc4-5)CC3)CC2)C1` (stereo not shown) [Compound 23, 1-[4-(3-methylpiperidine-1-carbonyl)piperidin-1-yl]-2-(4-[1H-pyrrolo[2,3-d]pyrimidin-4-yl]piperazin-1-yl)ethan-1-one], the IC50 on Human JAK-2 and at JAK-1 was > 1000 nM throughout.
Regarding `CC(C)N(C)C(=O)C1CCN(C(=O)CN2CCN(c3nc[nH]c4nccc3-4)CC2)CC1` [Compound 24, N-methyl-N-(propan-2-yl)-1-[2-(4-{1H-pyrrolo[2,3-d]pyrimidin-4-yl}piperazin-1-yl)acetyl]piperidine-4-carboxamide], the IC50 at Human JAK-2 and against JAK-1 was > 1000 nM throughout.
As to `O=C(CN1CCN(c2nc[nH]c3nccc2-3)CC1)Nc1ccc(S(=O)(=O)Nc2ncccn2)cc1` [Compound 25, N-{4-[(pyrimidin-2-yl)sulfamoyl]phenyl}-2-(4-{1H-pyrrolo[2,3-d]pyrimidin-4-yl}piperazin-1-yl)acetamide], the IC50 at Human JAK-2 and against JAK-1 was < 250 nM throughout. At JAK-1, the JAK1/JAK2 selectivity is listed as 1.
Turning to `O=C(CN1CCN(c2nc[nH]c3nccc2-3)CC1)N1CCC(Cc2ccccc2)CC1` [Compound 26, 1-(4-benzylpiperidin-1-yl)-2-(4-{1H-pyrrolo[2,3-d]pyrimidin-4-yl}piperazin-1-yl)ethan-1-one], the IC50 at Human JAK-2 is > 1000 nM; against JAK-1, 250 to 500 nM. Also, on JAK-1, the JAK1/JAK2 selectivity is on record as >22.
On to `NS(=O)(=O)c1cccc(NC(=O)CN2CCN(c3nc[nH]c4nccc3-4)CC2)c1` [Compound 27, 2-(4-{1H-pyrrolo[2,3-d]pyrimidin-4-yl}piperazin-1-yl)-N-(3-sulfamoylphenyl)acetamide], for which the IC50 on Human JAK-2 was > 1000 nM; on JAK-1 it was < 250 nM. In addition, on JAK-1, the JAK1/JAK2 selectivity came out at 14.
On to `O=C(CN1CCN(c2nc[nH]c3nccc2-3)CC1)N1CCN(C(=O)Nc2ccccc2)CC1` [Compound 28, N-phenyl-4-[2-(4-{1H-pyrrolo[2,3-d]pyrimidin-4-yl}piperazin-1-yl)acetyl]piperazine-1-carboxamide], for which the IC50 on Human JAK-2 was > 1000 nM. Further, on JAK-1, the IC50 lay in the range of 250 to 500 nM and the JAK1/JAK2 selectivity was found to be 19.
For `CN(C)S(=O)(=O)c1cccc(NC(=O)CN2CCN(c3nc[nH]c4nccc3-4)CC2)c1` [Compound 29, N-[3-(dimethylsulfamoyl)phenyl]-2-(4-{1H-pyrrolo[2,3-d]pyrimidin-4-yl}piperazin-1-yl)acetamide] the same measures were > 1000 nM, 500 to 1000 nM and 11.
For the compound `O=C(CN1CCN(c2nc[nH]c3nccc2-3)CC1)Nc1cccc(S(=O)(=O)N2CCOCC2)c1` [Compound 30, N-[3-(morpholine-4-sulfonyl)phenyl]-2-(4-{1H-pyrrolo[2,3-d]pyrimidin-4-yl}piperazin-1-yl)acetamide], the IC50 on Human JAK-2 is > 1000 nM. Moreover, on JAK-1, the IC50 was > 1000 nM and the JAK1/JAK2 selectivity stood at 6.
In the case of `O=C(CN1CCN(c2nc[nH]c3nccc2-3)CC1)Nc1ccc(S(=O)(=O)N2CCCCC2)cc1` [Compound 31, N-[4-(piperidine-1-sulfonyl)phenyl]-2-(4-{1H-pyrrolo[2,3-d]pyrimidin-4-yl}piperazin-1-yl)acetamide], the IC50 on Human JAK-2 is > 1000 nM; against JAK-1, < 250 nM. Moreover, the JAK1/JAK2 selectivity on JAK-1 was determined as 4.
